Data as given in US11572398B2, “GLP-1 derivatives and uses thereof” (Novo Nordisk A/S, priority 2014, dated 2023).
Read-outs that look alike come from different tables or passages of the source.

Legend:
human GLP-1 receptor [1] = target: T1, human GLP-1 receptor (Homo sapiens, UniProt P43220); assay: GLP-1 receptor binding: competitive binding assay (125I-GLP-1, SPA) on isolated membranes at low and high HSA
T1 construct: expressed in transfected cells; host or cells: BHK cells (parent line BHKTS13), clone FCW467-12A; membrane preparation
Experimental: The purpose of this example is to test the receptor binding of the GLP-1 derivatives in vitro. The receptor binding is a measure of affinity of a derivative for the human GLP-1 receptor.
Each derivative is added in a series of concentrations to isolated membranes containing the human GLP-1 receptor and displacement of the labelled ligand is monitored. The receptor binding is reported as the concentration at which half of the labelled ligand is displaced from the receptor, the IC50 value.
Buffer 1 consisted of 20 mM Na-HEPES plus 10 mM EDTA and pH was adjusted to 7.4. Buffer 2 consisted of 20 mM Na-HEPES plus 0.1 mM EDTA and pH was adjusted to 7.4. Assay buffer consisted of 50 mM HEPES supplemented with 5 mM EGTA, 5 mM MgCl2, 0.005% Tween 20 and pH was adjusted to 7.4. An 8% albumin stock consisted of HSA dissolved at 8% (w/v) in assay buffer. An 0.02% albumin stock consisted of HSA dissolved at 0.02% (w/v) in assay buffer.
The cells express the human GLP-1 receptor.
The cells were grown at 5% CO2 in DMEM, 10% fetal calf serum, 1% Pen/Strep (Penicillin/Streptomycin) and 1.0 mg/ml of the selection marker G418. To make a membrane preparation the cells were grown to approximately 80% confluence. The cells were washed twice in phosphate-buffered saline and harvested. The cells were pelleted using a brief centrifugation and the cell pellet was kept on ice. […] The homogenate was centrifuged for 15 minutes. The pellet was re-suspended (homogenised) in 10 ml buffer 2 and centrifuged. This step was repeated once more. The resulting pellet was re-suspended in buffer 2 and the protein concentration was determined. The membranes were aliquoted and stored at minus 80° C.
1. […] Assay continued with step 3.
2. For the receptor binding assay in the presence of high HSA (2%) 50 μl of the 8% albumin stock was added to each well of an assay plate. Assay continued with step 3.
4. Cell membrane aliquots were thawed and diluted to their working concentration. Fifty μl were added to each well in the assay plate.
5. WGA SPA beads were suspended in assay buffer at 20 mg/ml. The suspension was diluted to 10 mg/ml in assay buffer just prior to addition to the assay plate. Fifty μl were added to each well in the assay plate.
6. […] A 25 μl aliquot was reserved for measuring total counts/well.
7. The assay plate was incubated for 2 h at 30° C.
8. The assay plate was centrifuged for 10 min.
9. The assay plate was read in a Packard TopCount NXT instrument.
The data from the TopCount instrument were transferred to GraphPad Prism software. Individual replicates were analysed using non-linear regression. IC50 values were calculated by the software and reported in nM. The reported values are averages of all of the measured values for each compound.

human GLP-1 receptor [2] = target: T1, human GLP-1 receptor; assay: In vitro potency: CRE luciferase reporter gene assay in BHK cells expressing the human GLP-1 receptor; type: cell-based
Experimental: The purpose of this example is to test the activity, or potency, of the GLP-1 derivatives in vitro. The in vitro potency is the measure of human GLP-1 receptor activation in a whole cell assay.
In vitro potency was determined by measuring the response of the human GLP-1 receptor in a reporter gene assay. The assay was performed in a stably transfected BHK cell line that expresses the human GLP-1 receptor and contains the DNA for the cAMP response element (CRE) coupled to a promoter and the gene for firefly luciferase (CRE luciferase). When the human GLP-1 receptor is activated it results in the production of cAMP, which in turn results in the luciferase protein being expressed. When assay incubation is completed the luciferase substrate (luciferin) is added and the enzyme converts luciferin to oxyluciferin to produce bioluminescence. The luminescence is measured as the readout for the assay.
The cells were cultured at 5% CO2 in cell culture medium. They were aliquoted and stored in liquid nitrogen. Before each assay an aliquot was taken up and washed twice in PBS before being suspended at the desired concentration in the assay specific buffer.
The assay buffer consisted of 2% ovalbumin and 0.2% Pluronic F-68 in assay medium.
1) Cell stocks were thawed in a 37° C. water bath.
2) Cells were washed three times in PBS.
3) Cells were counted and adjusted to 5×10^3 cells/50 μl (1×10^5 cells/ml) in assay medium. A 50 μl aliquot of cells was transferred to each well in the assay plate.
4) Stocks of the test compounds and reference compounds were diluted to a concentration of 0.2 μM in assay buffer. […] 8) A 100 μl aliquot of steadylite plus reagent was added to each well of the assay plate. 9) Each assay plate was covered with aluminum foil to protect it from light and shaken for 30 min at room temperature. 10) Each assay plate was read in a BioTek Synergy 2 Multi-Mode Reader. Calculations and Results
The data from the BioTek Synergy 2 Multi-Mode Reader were transferred to GraphPad Prism software. The software performs a non-linear regression (log(agonist) vs response (three parameters)).
A minimum of two replicates were measured for each sample. The reported EC50 values are averages of all of the measured values for each compound.

[3] = Low HSA IC50, low HSA (max. 0.001% final assay concentration)
[4] = high HSA (2.0% final assay concentration), read-out: High HSA IC50
[5] = whole cell reporter gene assay, BHK cells, human GLP-1 receptor, average of at least two replicates, read-out: EC50

T1 sequence (P43220 24-463): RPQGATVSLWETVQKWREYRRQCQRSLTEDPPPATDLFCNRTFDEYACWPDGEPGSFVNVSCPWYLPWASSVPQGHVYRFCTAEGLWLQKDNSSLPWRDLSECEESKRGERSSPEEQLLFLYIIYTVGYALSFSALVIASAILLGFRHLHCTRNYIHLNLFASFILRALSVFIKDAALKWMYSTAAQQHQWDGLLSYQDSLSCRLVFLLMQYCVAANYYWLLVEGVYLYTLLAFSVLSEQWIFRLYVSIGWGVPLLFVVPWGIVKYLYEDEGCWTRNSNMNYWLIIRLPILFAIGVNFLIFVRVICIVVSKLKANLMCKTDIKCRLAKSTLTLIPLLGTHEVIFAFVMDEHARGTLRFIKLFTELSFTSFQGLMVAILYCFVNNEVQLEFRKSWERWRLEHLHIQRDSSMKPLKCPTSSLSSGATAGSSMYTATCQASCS

Structure (SMILES)	IC50 (human GLP-1 receptor [1]; High HSA IC50, high HSA (2.0% final assay concentration))	IC50 (human GLP-1 receptor [1]; [3])	EC50 (human GLP-1 receptor [2])	IC50 (human GLP-1 receptor [1]; [4])	EC50 (human GLP-1 receptor [2]; [5])
CC[C@H](C)[C@H](NC(=O)[C@H](Cc1ccccc1)NC(=O)[C@H](CCC(=O)O)NC(=O)[C@H](CCCNC(=N)N)NC(=O)[C@H](C)NC(=O)[C@H](C)NC(=O)[C@H](CCC(N)=O)NC(=O)[C@H](CCC(=O)O)NC(=O)[C@H](CCC(=O)O)NC(=O)[C@H](CC(C)C)NC(=O)[C@H](Cc1ccc(O)cc1)NC(=O)[C@H](CO)NC(=O)[C@H](CO)NC(=O)[C@@H](NC(=O)[C@H](CC(=O)O)NC(=O)[C@H](CO)NC(=O)[C@@H](NC(=O)[C@H](Cc1ccccc1)NC(=O)[C@@H](NC(=O)CNC(=O)[C@H](CCC(=O)O)NC(=O)C(C)(C)NC(=O)[C@@H](N)Cc1c[nH]cn1)[C@@H](C)O)[C@@H](C)O)C(C)C)C(=O)N[C@@H](C)C(=O)N[C@@H](Cc1c[nH]c2ccccc12)C(=O)N[C@@H](CC(C)C)C(=O)N[C@H](C(=O)N[C@@H](CCCNC(=N)N)C(=O)NCC(=O)N[C@@H](CCCNC(=N)N)C(=O)N[C@@H](CCCCNC(=O)CN(CCCNC(=O)COCCOCCNC(=O)COCCOCCNC(=O)COCCOCCNC(=O)COCCOCCNC(=O)COCCOCCNC(=O)COCCOCCNC(=O)CC[C@H](NC(=O)CCCNC(=O)CCCCCCCCCCCCCCCS(=O)(=O)O)C(=O)O)CCCNC(=O)COCCOCCNC(=O)COCCOCCNC(=O)COCCOCCNC(=O)COCCOCCNC(=O)COCCOCCNC(=O)COCCOCCNC(=O)CC[C@H](NC(=O)CCCNC(=O)CCCCCCCCCCCCCCCS(=O)(=O)O)C(=O)O)C(=O)O)C(C)C [Example 18, N{Epsilon-37}-[2-[bis[3-[[2-[2-[2-[[2-[2-[2-[[2-[2-[2-[[2-[2-[2-[[2-[2-[2-[[2-[2-[2-[[(4S)-4-carboxy-4-[4-(16-sulfohexadecanoylamino)butanoylamino]butanoyl]amino]ethoxy]ethoxy]acetyl]amino]ethoxy]ethoxy]acetyl]amino]ethoxy]ethoxy]acetyl]amino]ethoxy]ethoxy]acetyl]amino]ethoxy]ethoxy]acetyl]amino]ethoxy]ethoxy]acetyl]amino]propyl]amino]acetyl]-[Aib8,Glu22,Arg26,Arg34,Lys37]-GLP-1-(7-37)-peptide]	5.7 nM	0.18 nM	0.0013 nM		
CC[C@H](C)[C@H](NC(=O)[C@H](Cc1ccccc1)NC(=O)[C@H](CCC(=O)O)NC(=O)[C@H](CCCNC(=N)N)NC(=O)[C@H](C)NC(=O)[C@H](C)NC(=O)[C@H](CCC(N)=O)NC(=O)[C@H](CCC(=O)O)NC(=O)[C@H](CCC(=O)O)NC(=O)[C@H](CC(C)C)NC(=O)[C@H](Cc1ccc(O)cc1)NC(=O)[C@H](CO)NC(=O)[C@H](CO)NC(=O)[C@@H](NC(=O)[C@H](CC(=O)O)NC(=O)[C@H](CO)NC(=O)[C@@H](NC(=O)[C@H](Cc1ccccc1)NC(=O)[C@@H](NC(=O)CNC(=O)[C@H](CCC(=O)O)NC(=O)C(C)(C)NC(=O)[C@@H](N)Cc1c[nH]cn1)[C@@H](C)O)[C@@H](C)O)C(C)C)C(=O)N[C@@H](C)C(=O)N[C@@H](Cc1c[nH]c2ccccc12)C(=O)N[C@@H](CC(C)C)C(=O)N[C@H](C(=O)N[C@@H](CCCNC(=N)N)C(=O)NCC(=O)N[C@@H](CCCNC(=N)N)C(=O)N[C@@H](CCCCNC(=O)CN(CCCNC(=O)COCCOCCNC(=O)COCCOCCNC(=O)COCCOCCNC(=O)COCCOCCNC(=O)CC[C@H](NC(=O)[C@H]1CC[C@H](CNC(=O)CCCNC(=O)CCCCCCCCCCCCCCCS(=O)(=O)O)CC1)C(=O)O)CCCNC(=O)COCCOCCNC(=O)COCCOCCNC(=O)COCCOCCNC(=O)COCCOCCNC(=O)CC[C@H](NC(=O)[C@H]1CC[C@H](CNC(=O)CCCNC(=O)CCCCCCCCCCCCCCCS(=O)(=O)O)CC1)C(=O)O)C(=O)O)C(C)C [Example 19, N{Epsilon-37}-[2-[bis[3-[[2-[2-[2-[[2-[2-[2-[[2-[2-[2-[[2-[2-[2-[[(4S)-4-carboxy-4-[[4-[[4-(16-sulfohexadecanoylamino)butanoylamino]methyl]cyclohexanecarbonyl]amino]butanoyl]amino]ethoxy]ethoxy]acetyl]amino]ethoxy]ethoxy]acetyl]amino]ethoxy]ethoxy]acetyl]amino]ethoxy]ethoxy]acetyl]amino]propyl]amino]acetyl]-[Aib8,Glu22,Arg26,Arg34,Lys37]-GLP-1-(7-37)-peptide]		0.15 nM		42 nM	0.0014 nM
CC[C@H](C)[C@H](NC(=O)[C@H](Cc1ccccc1)NC(=O)[C@H](CCC(=O)O)NC(=O)[C@H](CCCNC(=N)N)NC(=O)[C@H](C)NC(=O)[C@H](C)NC(=O)[C@H](CCC(N)=O)NC(=O)[C@H](CCC(=O)O)NC(=O)[C@H](CCC(=O)O)NC(=O)[C@H](CC(C)C)NC(=O)[C@H](Cc1ccc(O)cc1)NC(=O)[C@H](CO)NC(=O)[C@H](CO)NC(=O)[C@@H](NC(=O)[C@H](CC(=O)O)NC(=O)[C@H](CO)NC(=O)[C@@H](NC(=O)[C@H](Cc1ccccc1)NC(=O)[C@@H](NC(=O)CNC(=O)[C@H](CCC(=O)O)NC(=O)C(C)(C)NC(=O)[C@@H](N)Cc1c[nH]cn1)[C@@H](C)O)[C@@H](C)O)C(C)C)C(=O)N[C@@H](C)C(=O)N[C@@H](Cc1c[nH]c2ccccc12)C(=O)N[C@@H](CC(C)C)C(=O)N[C@H](C(=O)N[C@@H](CCCNC(=N)N)C(=O)NCC(=O)N[C@@H](CCCNC(=N)N)C(=O)N[C@@H](CCCCNC(=O)CN(CCCNC(=O)COCCOCCNC(=O)COCCOCCNC(=O)COCCOCCNC(=O)COCCOCCNC(=O)COCCOCCNC(=O)CC[C@H](NC(=O)[C@H]1CC[C@H](CNC(=O)CCCNC(=O)CCCCCCCCCCCCCCCS(=O)(=O)O)CC1)C(=O)O)CCCNC(=O)COCCOCCNC(=O)COCCOCCNC(=O)COCCOCCNC(=O)COCCOCCNC(=O)COCCOCCNC(=O)CC[C@H](NC(=O)[C@H]1CC[C@H](CNC(=O)CCCNC(=O)CCCCCCCCCCCCCCCS(=O)(=O)O)CC1)C(=O)O)C(=O)O)C(C)C [Example 20, N{Epsilon-37}-[2-[bis[3-[[2-[2-[2-[[2-[2-[2-[[2-[2-[2-[[2-[2-[2-[[2-[2-[2-[[(4S)-4-carboxy-4-[[4-[[4-(16-sulfohexadecanoylamino)butanoylamino]methyl]cyclohexanecarbonyl]amino]butanoyl]amino]ethoxy]ethoxy]acetyl]amino]ethoxy]ethoxy]acetyl]amino]ethoxy]ethoxy]acetyl]amino]ethoxy]ethoxy]acetyl]amino]ethoxy]ethoxy]acetyl]amino]propyl]amino]acetyl]-[Aib8,Glu22,Arg26,Arg34,Lys37]-GLP-1-(7-37)-peptide]		0.14 nM		3.7 nM	0.0016 nM
